In data set [1] the test system is primary neurons. Description: Cytotoxicity / neuronal cell death in the presence of NSP5 (PI/DAPI).
Data set [2] in a line: Stability in brain and lung homogenates. Format: in vitro ADME, mouse. Conditions: sample processing (15 min), EDTA/potassium fluoride. On the procedure:
Tissue: Pre-weighed tissue samples (brain and lung) were homogenised using a gentleMACS™ Octo Dissociator (Miltenyi Biotec, Macquarie Park, Australia) in buffer containing an EDTA/potassium fluoride solution (0.1 M/4 mg/mL) as a stabilisation cocktail to minimise the potential for ex vivo degradation (3 mL cocktail/g tissue). The tissue homogenate was briefly centrifuged (RCF=79×g) for 10 seconds to separate the foam layer before transferring an aliquot of the tissue homogenate (200 μL) to a fresh Eppendorf tube for sample extraction. Calibration standards were prepared by spiking blank brain and lung homogenate (200 μL) with the solution standards (10 μL) and the internal standard (10 μL). Study samples (for all tissue types) were similarly prepared, except that acetonitrile (10 μL) was added instead of solution standards to maintain the same volume. Protein precipitation was carried out by the addition of a 3-fold volume of acetonitrile, followed by vortex mixing and centrifugation (RCF=9391×g) for 3 min to recover the supernatant for analysis.

The nature of data set [3]: Unbound fraction (fu) in mouse plasma. Format: in vitro ADME.
In data set [4] the test system is primary neurons. Description: Neuronal cell death in the presence of NMDA. The data set is classed as cell-based, mouse. Conditions: 1 or 10 μM compound, 100 μM NMDA. Here is the method: (§1) Primary neurons were treated with 0.4, 1, 2, 10 or 50 μM of compound 2 or compound 22 (prepared according to Example 2). NSP5 was added to primary neurons at DIV11, and compound 2 or 22 was added 48 hours later. Cells were treated with propidium iodide 48 hours after compound addition. Cells were washed with PBS and fixed with 4% PFA. Cells were then washed and stained with DAPI. Images of cells were taken with ZEISS Axioscan 7 microscope slide scanner. Cell death was determined by Image J analysis, counting the death cell (red, PI)) vs all cells (blue, DAPI).
(§2) One hour after compound addition (1 or 10 μM of compound 2 or compound 22) neurons were treated with a cytotoxic agent (100 μM N-methyl-D-aspartate (NMDA), 100 μM H2O2 or 5 μM staurosporine). One hour after treatment with the cytotoxic agent, the media was replaced with fresh media and the neurons were incubated for 24 hours. A final concentration of 1 μM propidium iodide (PI) was added into the well and incubated for 5 mins. Cells were washed with phosphate-buffered saline (PBS) and then fixed with 4% PFA. Cells were then washed and stained with DAPI, and cell death determined as described above.

The test system of data set [5] is primary neurons. Description: Effect of compounds on neuronal cell death caused by NSP5 (Example 6). Format: cell-based, mouse. The following applies: 10 μM, 48 hours.
In data set [6] the test system is PHP.B hSyn-NSP5-V5 adeno-associated virus. Description: Weight loss after AAV injection. The following applies: 10 mg/kg daily, vs Paxlovid and vehicle; significant at day 19 to end. Format: in vivo, mouse. Here is the method:
In vivo testing was performed on 5-month-old female C57BL/6 wildtype mice injected intravenously with PHP.B hSyn-NSP5-V5 adeno-associated virus (AAV) and treated daily with compound 22 (10 mg/kg), Paxlovid (nirmatrelvir/ritonavir) (10 mg/kg nirmatrelvir: 3.33 mg/kg ritonavir) or a vehicle control (n=10 per group).
Weight loss was monitored over a 21-day period post injection with the AAV.

Data set [7] is described as follows: In vivo whole blood-to-plasma ratio. Conditions: IV 3 mg/kg, 1 h post dose, mouse blood, n=3; read-out: B/P ratio (whole blood-to-plasma). Here is the method: As part of the assessment of the IV pharmacokinetics, blood was collected from mice (n=3) at 1 h post dose for the purposes of determining the whole blood-to-plasma (B/P) ratio.
Blood was collected via cardiac puncture (whilst under gaseous isoflurane anaesthesia) into tubes containing heparin. The haematocrit was determined via centrifugation [13000×g for 4 min using a Clemets® Microhematocrit centrifuge (Clements, Rydalmere, Australia) and Safecap® Plain Self-sealing Mylar Wrapped capillary tubes (Safe-Tec Clinical Products LLC, Broomall, USA)], and values ranged from 32% to 36% for blood samples across the three mice.
Each blood aliquot (25 μL) was collected and matrix matched with an equivalent volume of blank plasma. The remainder of the blood sample was centrifuged and 1×25 μL plasma aliquot was collected and matrix matched with an equivalent volume of blank blood. Samples were frozen on dry ice and subsequently stored at −80 °C until analysis by LC-MS. The B/P ratio was calculated on the basis of the LC-MS response of compound 22 in blood and plasma following centrifugation of whole blood and the average B/P ratio (n=3 mice) is reported.

Data set [8] relates to primary neurons expressing SARS-CoV-2 NSP5 (AAV9-NSP5-V5). Nature of the data set: Effect on neurons in the presence of NSP5 (AAV9-NSP5-V5, immunofluorescence). Format: cell-based, mouse. Conditions: 0.4, 2, 10 or 50 μM, two days.
Data set [9] relates to primary neurons. Description: Neuronal cell death in the presence of staurosporine. The data set is classed as cell-based, mouse. The following applies: 1 or 10 μM compound, 5 μM staurosporine. Here is the method:
as §1, §2

Experimental findings from patent US20260355171A1, “INHIBITORS AND USES THEREFOR” (priority 2022, published 2026) are described below.

As for `NC(=O)C1CCN(c2ncccc2CNCc2cccc3[nH]ccc23)CC1` [Compound 22], the “Reduction of neuronal cell death caused by NSP5” value is listed as “selectively reduced neuronal cell death caused by NSP5” in the data set with primary neurons [1] (0.4, 1, 2, 10 or 50 μM, 48 hours) and “greatest activity” in the data set with primary neurons [5]. For the same compound, the “Cell death caused by compound” value in the data set on primary neurons [1] (therapeutic concentrations (nM to low μM)) is on record as “did not cause any cell death”. The “Stability in brain and lung homogenates” value in [2] was “stable”. The fraction unbound (usually the share of the substance not bound to proteins or other matrix) in data set [3] was 0.547. The “Protection from NMDA-induced neurotoxicity” value in the data set on primary neurons [4] is listed as “did not protect”. Moreover, in data set [6], the “Weight loss from 17 days post injection” value is “weight loss was less severe”. Moreover, in data set [7], the blood plasma ratio at 1 h came to 1.4. Further, the “Prevention of NSP5-induced neuronal death” value in [8] is “prevented NSP5-induced neuronal death in a dose-dependent manner”. Besides, the “Protection from staurosporine-induced neurotoxicity” value in the data set on primary neurons [9] was “did not protect”.
